This passage reports Ki results from US9676723B2, “Factor XIa inhibitors” (Merck Sharp & Dohme Corp., priority 2014, dated 2017).

Counter-ions that a name gives are not always drawn.

This assay deals with T1, human Factor XIa (Homo sapiens, UniProt P03951).
T1 construct: purified human Factor XIa; purchased Sekisui Diagnostics
T1 sequence (P03951 388-625 limits assumed): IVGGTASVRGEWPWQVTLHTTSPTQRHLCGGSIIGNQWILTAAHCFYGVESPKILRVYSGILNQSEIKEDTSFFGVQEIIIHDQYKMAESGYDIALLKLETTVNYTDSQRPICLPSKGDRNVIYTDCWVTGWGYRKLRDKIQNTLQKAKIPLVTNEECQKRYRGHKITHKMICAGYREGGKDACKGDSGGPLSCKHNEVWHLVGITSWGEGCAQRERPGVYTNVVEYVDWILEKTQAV
T1 sequence (P03951 19-387 partner limits assumed): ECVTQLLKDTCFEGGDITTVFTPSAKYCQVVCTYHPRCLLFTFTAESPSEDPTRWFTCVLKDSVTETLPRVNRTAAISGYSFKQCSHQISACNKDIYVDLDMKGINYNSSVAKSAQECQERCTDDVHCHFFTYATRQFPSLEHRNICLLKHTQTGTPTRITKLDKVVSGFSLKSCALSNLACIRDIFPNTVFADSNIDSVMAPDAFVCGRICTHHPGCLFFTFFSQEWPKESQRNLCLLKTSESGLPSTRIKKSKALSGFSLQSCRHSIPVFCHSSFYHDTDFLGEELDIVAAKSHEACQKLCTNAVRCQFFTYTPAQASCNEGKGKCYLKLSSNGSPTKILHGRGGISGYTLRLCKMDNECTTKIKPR
Nature of the assay: Factor XIa Assay (fluorogenic substrate Z-Gly-Pro-Arg-AFC hydrolysis). It counts as biochemical. Particulars: purified human Factor XIa 40 pM; substrate Z-Gly-Pro-Arg-AFC 100 μM; 50 mM HEPES pH 7.4; read-out: hu Factor XIa Ki. On the procedure: The effectiveness of compounds of the present invention as inhibitors of Coagulation Factor XIa can be determined using a relevant purified serine protease, and an appropriate synthetic substrate. The rate of hydrolysis of the chromogenic or fluorogenic substrate by the relevant serine protease was measured both in the absence and presence of compounds of the present invention. Assays were conducted at room temperature or at 37° C. […] A decrease in the rate of fluorescence change in the presence of inhibitor is indicative of enzyme inhibition. Such methods are known to one skilled in the art. The results of this assay are expressed as the inhibitory constant, Ki.
Factor XIa determinations were made in 50 mM HEPES buffer at pH 7.4 containing 150 mM NaCl, 5 mM CaCl2, and 0.1% PEG 8000 (polyethylene glycol; JT Baker or Fisher Scientific). Determinations were made using purified human Factor XIa at a final concentration of 40 pM (Sekisui Diagnostics) and the synthetic substrate, Z-Gly-Pro-Arg-AFC, TFA salt (Sigma #C0980) at a concentration of 100 μM.
Activity assays were performed by diluting a stock solution of substrate at least tenfold to a final concentration ≦0.1 Km into a solution containing enzyme or enzyme equilibrated with inhibitor. Times required to achieve equilibration between enzyme and inhibitor were determined in control experiments. Initial velocities of product formation in the absence (Vo) or presence of inhibitor (Vi) were measured. Assuming competitive inhibition, and that unity is negligible compared Km/[S], [I]/e, and [I]/e (where [S], [I], and e respectively represent the total concentrations, of substrate, inhibitor and enzyme), the equilibrium constant (Ki) for dissociation of the inhibitor from the enzyme can be obtained from the dependence of Vo/Vi on [I] shown in the following equation. Vo/Vi=1+[I]/Ki
A word on the Ki: it is a measure of affinity in units of concentration, obtained from inhibition or displacement. As to `NCc1ccc2c(c1)CCN([C@@H](Cc1ccccc1)C(=O)Nc1ccc(C(=O)O)cc1)C2=O` [Example 1, 4-({(2S)-2-[6-(aminomethyl)-1-oxo-3,4-dihydroisoquinolin-2(1H)-yl]-3-phenylpropanoyl}amino)benzoic acid trifluoroacetate], the Ki is 44 nM.

Turning to `COC(=O)Nc1ccc(-c2cnc([C@H](Cc3ccccc3)N3CCc4cc(CN)ccc4C3=O)[nH]2)cc1` [Example 2, (S)-METHYL (4-(2-(1-(6-(AMINOMETHYL)-1-OXO-3,4-DIHYDROISOQUINOLIN-2(1H)-YL)-2-PHENYLETHYL)-1H-IMIDAZOL-5-YL)PHENYL)CARBAMATE 2,2,2-TRIFLUOROACETATE], the Ki is 116 nM.

In the case of `NCc1ccc2c(c1)CN([C@@H](Cc1ccccc1)C(=O)Nc1ccc(C(=O)O)cc1)C2=O` [Example 3], the inhibition constant Ki stood at 308 nM.

Take `NCc1ccc2c(c1)CCN(C(Cc1ccccc1)C(=O)Nc1ccc(C(=O)O)cc1)C2=O` (centres unmarked) [Example 4]: the Ki was found to be 176 nM.

As to `NCc1ccc2c(c1)CCN([C@@H](Cc1ccccc1)c1ncc(-c3ccc(C(=O)O)s3)[nH]1)C2=O` [Example 5], the Ki was determined as 546 nM.

Turning to `COC(=O)Nc1ccc(-c2[nH]c([C@H](Cc3ccccc3)N3CCc4cc(CN)ccc4C3=O)nc2Cl)cc1` [Example 6], the inhibitory constant (Ki) was 14 nM.

`NCc1ccc2c(c1)CCN([C@@H](Cc1ccccc1)C(=O)Nc1ccc3[nH]ncc3c1)C2=O` [Example 7]: the Ki was found to be 246 nM.

On to `Cc1nc2cc(NC(=O)[C@H](Cc3ccccc3)N3CCc4cc(CN)ccc4C3=O)ccc2s1` [Example 8], for which the Ki came out at 907 nM.

As to `NCc1ccc2c(c1)CCN([C@@H](Cc1ccccc1)C(=O)Nc1cccc(F)c1)C2=O` [Example 9], the inhibitory constant (Ki) was determined as 1080 nM.

As to `NCc1ccc2c(c1)CCN([C@@H](Cc1ccccc1)c1ncc(-c3cccc(F)c3)[nH]1)C2=O` [Example 10], the Ki was 4130 nM.

On to `COC(=O)Nc1ccc(-c2[nH]c([C@H](Cc3ccccc3)N3CCc4cc(CN)ccc4C3=O)nc2C)cc1` [Example 11], for which the inhibitory constant (Ki) worked out at 84 nM.

As to `NCc1ccc2c(c1)CCN([C@@H](Cc1ccccc1)c1ncc(-c3ccc4c(N)n[nH]c4c3)[nH]1)C2=O` [Example 12], the inhibitory constant (Ki) was 53 nM.

For the compound `NCc1ccc2c(c1)CCN([C@@H](Cc1ccccc1)C(=O)Nc1ccc3c(N)n[nH]c3c1)C2=O` [Example 13], the Ki stood at 151 nM.

For the compound `CC(C)COC(=O)Nc1ccc(-c2[nH]c([C@H](Cc3ccccc3)N3CCc4cc(CN)ccc4C3=O)nc2Cl)cc1` [Example 14], the inhibition constant Ki was 435 nM.

With `NCc1ccc2c(c1)CCN([C@@H](Cc1ccccc1)c1nc(Cl)c(-c3ccc(NC(=O)OC4CCCC4)cc3)[nH]1)C2=O` [Example 15], the inhibition constant Ki is 506 nM.

Turning to `NCc1ccc2c(c1)CCN([C@@H](Cc1ccccc1)C(=O)Nc1ccc(-c3c[nH]cn3)cc1)C2=O` [Example 19], the inhibition constant Ki was 68.9 nM.

Regarding `NCc1ccc2c(c1)CCN([C@@H](Cc1ccccc1)C(=O)Nc1ccc(-c3cc[nH]n3)cc1)C2=O` [Example 20], the inhibition constant Ki was 94.3 nM.

For `Cc1nnc(-c2ccc(NC(=O)[C@H](Cc3ccccc3)N3CCc4cc(CN)ccc4C3=O)cc2)[nH]1` [Example 21], the Ki was 254 nM.

As for `Cc1ncc(-c2ccc(NC(=O)[C@H](Cc3ccccc3)N3CCc4cc(CN)ccc4C3=O)cc2)o1` [Example 22], the inhibition constant (Ki) worked out at 240 nM.

On to `Cc1ccc(-c2ccc(NC(=O)[C@H](Cc3ccccc3)N3CCc4cc(CN)ccc4C3=O)cc2)o1` [Example 23], for which the Ki was found to be 1080 nM.

As for `NCc1ccc2c(c1)CCN([C@@H](Cc1ccccc1)C(=O)Nc1ccc3ccncc3c1)C2=O` [Example 24], the inhibition constant Ki amounted to 1080 nM.

Regarding `NCc1ccc2c(c1)CCN([C@@H](Cc1ccccc1)C(=O)Nc1ccc(-c3cnc(C4CC4)o3)cc1)C2=O` [Example 25], the inhibition constant Ki is 221 nM.

As to `Cn1ccc(-c2ccc(NC(=O)[C@H](Cc3ccccc3)N3CCc4cc(CN)ccc4C3=O)cc2)n1` [Example 26], the inhibition constant (Ki) amounted to 207 nM.

For the compound `Cc1nc2ccc(NC(=O)[C@H](Cc3ccccc3)N3CCc4cc(CN)ccc4C3=O)cc2s1` [Example 27], the Ki is 284 nM.

For the compound `Cc1nsc2ccc(NC(=O)[C@H](Cc3ccccc3)N3CCc4cc(CN)ccc4C3=O)cc12` [Example 28], the Ki was 1470 nM.

Regarding `COC(=O)Nc1ccc(-c2cnc([C@H](Cc3ccccc3)N3CCc4c(ccc(CN)c4C4CC4)C3=O)[nH]2)cc1` [Example 29, (S)-methyl (4-(2-(1-(6-(aminomethyl)-5-cyclopropyl-1-oxo-3,4-dihydroisoquinolin-2(1H)-yl)-2-phenylethyl)-1H-imidazol-5-yl)phenyl)carbamate 2,2,2-trifluoroacetate], the Ki worked out at 198 nM.
